A word on the IC50: it is the concentration that gives 50% inhibition.

This assay has as its target T1, human RNR (histidine tagged human M1 and human M2 proteins) (Homo sapiens, UniProt P23921).
T1 construct: made in house; host or cells: Escherichia coli
T1 sequence (P23921 1-792): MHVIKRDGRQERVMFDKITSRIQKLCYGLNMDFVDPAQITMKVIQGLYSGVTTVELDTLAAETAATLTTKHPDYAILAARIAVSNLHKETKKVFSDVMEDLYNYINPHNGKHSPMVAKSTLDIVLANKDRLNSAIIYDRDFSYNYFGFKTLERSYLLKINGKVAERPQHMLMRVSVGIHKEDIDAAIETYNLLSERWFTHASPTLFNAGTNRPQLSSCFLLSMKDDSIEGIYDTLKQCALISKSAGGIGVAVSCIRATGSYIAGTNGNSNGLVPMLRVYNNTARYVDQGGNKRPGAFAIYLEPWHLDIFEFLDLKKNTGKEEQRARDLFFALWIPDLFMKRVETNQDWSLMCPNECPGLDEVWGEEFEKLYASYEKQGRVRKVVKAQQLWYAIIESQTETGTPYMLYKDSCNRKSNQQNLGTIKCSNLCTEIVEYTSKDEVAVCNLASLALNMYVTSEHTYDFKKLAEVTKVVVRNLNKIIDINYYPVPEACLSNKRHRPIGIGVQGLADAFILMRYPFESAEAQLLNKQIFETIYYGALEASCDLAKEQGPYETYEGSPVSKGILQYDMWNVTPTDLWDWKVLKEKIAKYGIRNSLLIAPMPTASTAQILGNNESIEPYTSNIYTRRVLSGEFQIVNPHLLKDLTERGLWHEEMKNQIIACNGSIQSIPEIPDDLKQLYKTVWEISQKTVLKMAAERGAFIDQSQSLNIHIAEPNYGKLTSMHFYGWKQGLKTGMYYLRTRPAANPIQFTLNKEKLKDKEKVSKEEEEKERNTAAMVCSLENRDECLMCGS
The experiment in a line: Human RNR inhibition effect (dCDP formation from CDP). The format is biochemical. The following applies: 10 μM CDP, 37° C. for 30 minutes, read-out: RNR inhibitory activity IC50. In a few lines: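 His-tagged human M1 (isoform 1) and N-terminal 59-aa-truncated M2 (isoform 2), E. coli-expressed, Ni-purified, preincubated 20 min with compound (1% DMSO). Reaction with 10 μM CDP, 2 mM ATP, 0.24 mM NADPH, 6 mM DTT, 4 mM Mg acetate, 100 mM KCl, 50 mM HEPES pH 7.2, 30 min at 37° C. dCDP formed quantified by reverse-phase HPLC after heat stop.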
Turning to `C[C@H](c1cccc2c1Cc1ccccc1-2)[C@H](NS(=O)(=O)c1ccc(Br)cn1)c1n[nH]c(=O)o1` [Example 49, N-((1S,2R)-2-(9H-fluoren-1-yl)-1-(5-oxo-4,5-dihydro-1,3,4-oxadiazol-2-yl)propyl)-5-bromopyridine-2-sulfonamide], the IC50 came to 800 nM.
For the compound `COc1cc(Cl)ccc1S(=O)(=O)N[C@H](c1n[nH]c(=O)o1)[C@H](C)c1cccc2cccc(C)c12` [Example 71, 4-chloro-2-methoxy-N-((1S,2R)-2-(8-methylnaphthalen-1-yl)-1-(5-oxo-4,5-dihydro-1,3,4-oxadiazol-2-yl)propyl)benzenesulfonamide], the IC50 was found to be 240 nM.
On to `Cc1ccc(F)c([C@@H](C)[C@H](NS(=O)(=O)c2ccc(Cl)cc2-c2ccno2)c2n[nH]c(=O)o2)c1C` [Example 91, 4-chloro-N-((1S,2R)-2-(6-fluoro-2,3-dimethylphenyl)-1-(5-oxo-4,5-dihydro-1,3,4-oxadiazol-2-yl)propyl)-2-(isoxazol-5-yl)benzenesulfonamide], for which the IC50 came to 230 nM.
The same measure for `Cc1ccc(F)c([C@@H](C)[C@H](NS(=O)(=O)c2ccc(Cl)c3c2C(O)CCC3)c2n[nH]c(=O)o2)c1C` (stereo partly drawn) [Example 240, 4-chloro-N-((1S,2R)-2-(6-fluoro-2,3-dimethylphenyl)-1-(5-oxo-4,5-dihydro-1,3,4-oxadiazol-2-yl)propyl)-8-hydroxy-5,6,7,8-tetrahydronaphthalene-1-sulfonamide]: 910 nM; for `CCc1cccc([C@@H](C)[C@H](NS(=O)(=O)c2ccc(Cl)cc2OC)c2n[nH]c(=O)o2)c1C` [Example 86, 4-chloro-N-((1S,2R)-2-(3-ethyl-2-methylphenyl)-1-(5-oxo-4,5-dihydro-1,3,4-oxadiazol-2-yl)propyl)-2-methoxybenzenesulfonamide]: 400 nM.
The same measure for `C[C@H](c1cccc2c1CCC2)[C@H](NS(=O)(=O)c1ccc(F)c(C(C)(C)O)c1F)c1n[nH]c(=O)o1` [Example 189, N-((1S,2R)-2-(2,3-dihydro-1H-inden-4-yl)-1-(5-oxo-4,5-dihydro-1,3,4-oxadiazol-2-yl)propyl)-2,4-difluoro-3-(2-hydroxypropan-2-yl)benzenesulfonamide]: 550 nM.
In the case of `COc1c(S(=O)(=O)N[C@H](c2n[nH]c(=O)o2)[C@H](C)c2c(F)ccc(C)c2C)ncc(Cl)c1C(C)OC(C)=O` (stereo partly drawn) [Example 120, 1-(5-chloro-2-(N-((1S,2R)-2-(6-fluoro-2,3-dimethylphenyl)-1-(5-oxo-4,5-dihydro-1,3,4-oxadiazol-2-yl)propyl)sulfamoyl)-3-methoxypyridin-4-yl)ethylacetate] it was 430 nM; in that of `Cc1cc(F)c(F)c([C@@H](C)[C@H](NS(=O)(=O)c2ccc(Cl)cc2C(N)=O)c2n[nH]c(=O)o2)c1C` [Example 13, 5-chloro-2-(N-((1S,2R)-2-(2,3-difluoro-5,6-dimethylphenyl)-1-(5-oxo-4,5-dihydro-1,3,4-oxadiazol-2-yl)propyl)sulfamoyl)benzamide], 140 nM.
Turning to `Cc1c(C2CC2)ccc(F)c1[C@@H](C)[C@H](NS(=O)(=O)c1ccc(Cl)cc1C(N)=O)c1n[nH]c(=O)o1` [Example 26, 5-chloro-2-(N-((1S,2R)-2-(3-cyclopropyl-6-fluoro-2-methylphenyl)-1-(5-oxo-4,5-dihydro-1,3,4-oxadiazol-2-yl)propyl)sulfamoyl)benzamide], the IC50 came to 160 nM.
In the case of `Cc1ccc(F)c([C@@H](C)[C@H](NS(=O)(=O)c2ccc3[nH]c(=O)[nH]c3c2)c2n[nH]c(=O)o2)c1C` [Example 165, N-((1S,2R)-2-(6-fluoro-2,3-dimethylphenyl)-1-(5-oxo-4,5-dihydro-1,3,4-oxadiazol-2-yl)propyl)-2-oxo-2,3-dihydro-1H-benzo[d]imidazole-5-sulfonamide], the IC50 amounted to 830 nM.
In the case of `Cc1ccc(F)c([C@@H](C)[C@H](NS(=O)(=O)c2ccc(Cl)c(C(=O)N3CCC(N)C3)n2)c2n[nH]c(=O)o2)c1C` (stereo partly drawn) [Example 283, 6-(3-aminopyrrolidine-1-carbonyl)-5-chloro-N-((1S,2R)-2-(6-fluoro-2,3-dimethylphenyl)-1-(5-oxo-4,5-dihydro-1,3,4-oxadiazol-2-yl)propyl)pyridine-2-sulfonamide] it was 150 nM; in that of `Cc1ccc(F)c([C@@H](C)[C@H](NS(=O)(=O)c2ccc(Cl)c3c2OCCC3(O)C(F)(F)F)c2n[nH]c(=O)o2)c1C` (single isomer, unassigned) [Example 220B], 80 nM.
The same measure for `Cc1ccc(F)c([C@@H](C)[C@H](NS(=O)(=O)c2ccc(Cl)c(C(=O)N3CCC4(CCC4)C3)n2)c2n[nH]c(=O)o2)c1C` [Example 115, 5-chloro-N-((1S,2R)-2-(6-fluoro-2,3-dimethylphenyl)-1-(5-oxo-4,5-dihydro-1,3,4-oxadiazol-2-yl)propyl)-6-(6-azaspiro[3.4]octane-6-carbonyl)pyridine-2-sulfonamide]: 180 nM; for `Cc1ccc(F)c([C@@H](C)[C@H](NS(=O)(=O)c2ccc(Cl)s2)c2n[nH]c(=O)o2)c1C` [Example 158, 5-chloro-N-((1S,2R)-2-(6-fluoro-2,3-dimethylphenyl)-1-(5-oxo-4,5-dihydro-1,3,4-oxadiazol-2-yl)propyl)thiophene-2-sulfonamide]: 450 nM; for `Cc1cc(F)cc([C@@H](C)[C@H](NS(=O)(=O)c2ccc(Cl)cc2C(N)=O)c2n[nH]c(=O)o2)c1C` [Example 7, 15-chloro-2-(N-((1S,2R)-2-(5-fluoro-2,3-dimethylphenyl)-1-(5-oxo-4,5-dihydro-1,3,4-oxadiazol-2-yl)propyl)sulfamoyl)benzamide]: 450 nM.
In the case of `Cc1ccc(F)c([C@@H](C)[C@H](NS(=O)(=O)c2c(F)cc(Cl)cc2C(N)=O)c2n[nH]c(=O)o2)c1C` [Example 258, 5-chloro-3-fluoro-2-(N-((1S,2R)-2-(6-fluoro-2,3-dimethylphenyl)-1-(5-oxo-4,5-dihydro-1,3,4-oxadiazol-2-yl)propyl)sulfamoyl)benzamide] it was 140 nM; in that of `Cc1ccc(F)c([C@@H](C)[C@H](NS(=O)(=O)c2ccc(Cl)cc2C(=O)NO)c2n[nH]c(=O)o2)c1C` [Example 286, 5-chloro-2-(N-((1S,2R)-2-(6-fluoro-2,3-dimethylphenyl)-1-(5-oxo-4,5-dihydro-1,3,4-oxadiazol-2-yl)propyl)sulfamoyl)-N-hydroxybenzamide], 70 nM.
Turning to `COc1cc(Cl)ccc1S(=O)(=O)N[C@H](c1n[nH]c(=O)o1)[C@H](C)c1c(F)ccc(-c2cnn(C3CCC3)c2)c1C` [Example 312, 4-chloro-N-((1S,2R)-2-(3-(1-cyclobutyl-1H-pyrazol-4-yl)-6-fluoro-2-methylphenyl)-1-(5-oxo-4,5-dihydro-1,3,4-oxadiazol-2-yl)propyl)-2-methoxybenzenesulfonamide], the IC50 came out at 220 nM.
Regarding `Cc1ccc(F)c([C@@H](C)[C@H](NS(=O)(=O)c2ccc3[nH]nnc3c2)c2n[nH]c(=O)o2)c1C` [Example 181, N-((1S,2R)-2-(6-fluoro-2,3-dimethylphenyl)-1-(5-oxo-4,5-dihydro-1,3,4-oxadiazol-2-yl)propyl)-1H-benzo[d][1,2,3]triazole-5-sulfonamide], the IC50 turned out to be 660 nM.
In the case of `COc1cc(Cl)ccc1S(=O)(=O)N[C@H](c1n[nH]c(=O)o1)[C@H](C)c1c(F)ccc(-c2cc[nH]n2)c1C` [Example 301, 4-chloro-N-((1S,2R)-2-(6-fluoro-2-methyl-3-(1H-pyrazol-3-yl)phenyl)-1-(5-oxo-4,5-dihydro-1,3,4-oxadiazol-2-yl)propyl)-2-methoxybenzenesulfonamide] it was 290 nM; in that of `Cc1ccc(S(=O)(=O)N[C@H](c2n[nH]c(=O)o2)[C@H](C)c2c(F)ccc(C)c2C)cc1S(=O)(=O)N1CCCCC1` [Example 171, N-((1S,2R)-2-(6-fluoro-2,3-dimethylphenyl)-1-(5-oxo-4,5-dihydro-1,3,4-oxadiazol-2-yl)propyl)-4-methyl-3-(piperidin-1-ylsulfonyl)benzenesulfonamide], 470 nM.
In the case of `[2H]C([2H])([2H])C1(O)CCOc2c(S(=O)(=O)N[C@H](c3n[nH]c(=O)o3)[C@H](C)c3c(F)ccc(Cl)c3C)ccc(Cl)c21` (single isomer, unassigned) [Example 228B] it was 140 nM.
As for `Cc1ccc(S(=O)(=O)N[C@H](c2n[nH]c(=O)o2)[C@H](C)c2c(F)ccc(C)c2C)c(C(N)=O)c1` [Example 10, 2-(N-((1S,2R)-2-(3-6-fluoro-2,3-dimethylphenyl)-1-(5-oxo-4,5-dihydro-1,3,4-oxadiazol-2-yl)propyl)sulfamoyl)-5-methylbenzamide], the IC50 was determined as 140 nM.

Source of the values: patent US20200405697A1, “Antitumor Agent” (Taiho Pharmaceutical Co., Ltd, priority 2017, published 2020).
